# Laboratory results published in a melting point compilation (Tetko et al.).
# Residues, ends and D or L forms follow the SMILES beside them. *: point of attachment. Cbz = O=C(OCc1ccccc1)*; Boc = CC(C)(C)OC(=O)*; OBn = c1ccc(CO*)cc1
row,Compound,melting point [°C]
1,CC1(C)CC(O)(C#N)CC(C)(C)N1,129 to 132
2,O=S(=O)(Oc1ccc2c(OS(=O)(=O)c3ccc(OCc4ccccc4)cc3)c3cc(OS(=O)(=O)c4ccc(OCc5ccccc5)cc4)ccc3cc2c1)c1ccc(OCc2ccccc2)cc1,164 to 166
3,CC(C)[C@H](NC(=O)N(C)Cc1cscn1)C(=O)N[C@@H](Cc1ccccc1)[C@H](O)[C@@H](O)[C@H](Cc1ccccc1)NC(=O)[C@@H](NC(=O)N(C)Cc1csc(N)n1)C(C)C,118 to 120
4,CCCc1[nH]c2ccccc2c1C1(c2ccc(N(CC)CC)cc2OCCCCCCCCCCOc2cc(N(CC)CC)ccc2C2(c3c(CCC)[nH]c4ccccc34)OC(=O)c3ccccc32)OC(=O)c2ccccc21 (centres undefined),116 to 118
5,CC(C)(C)c1cc(CCC(=O)OCC(COC(=O)CCc2cc(C(C)(C)C)c(O)c(C(C)(C)C)c2)(COC(=O)CCc2cc(C(C)(C)C)c(O)c(C(C)(C)C)c2)COC(=O)CCc2cc(C(C)(C)C)c(O)c(C(C)(C)C)c2)cc(C(C)(C)C)c1O,55 to 85
6,CCC1(CC)c2cc(-c3nc4ccccc4s3)ccc2-c2ccc(C(CCCCCN)c3ccc4c(c3)C(CC)(CC)c3cc(-c5nc6ccccc6s5)ccc3-4)cc21,108 to 109
7,CC1c2cc(C(C)(C)C)cc(C(C)(C)C)c2OP(OP2Oc3c(cc(C(C)(C)C)cc3C(C)(C)C)C(C)c3cc(C(C)(C)C)cc(C(C)(C)C)c3O2)Oc2c1cc(C(C)(C)C)cc2C(C)(C)C (centres undefined),281 to 285
8,C=CCOC1C(NC(C)=O)C(OCc2ccccc2)OC(COCc2ccccc2)C1OC1(N)OC(COCc2ccccc2)C(OCc2ccccc2)C(OCc2ccccc2)C1C(=O)OCC(Cl)(Cl)Cl (centres undefined),186 to 188
9,CC(=O)OCC1OC(OC2C(COC(C)=O)OC(OC3C(CO)OC(OCCBr)C(O)C3O)C(OC(C)=O)C2OC(C)=O)C(OC(C)=O)C(OC(C)=O)C1OC(C)=O (centres undefined),178 to 180
10,FC(F)(Br)C(F)(Cl)Br (centres undefined),-72.9
11,O=C(Cl)C(F)(F)F,-146
12,CC(C)(C)c1cc(CCC(=O)OCC(COCC(COC(=O)CCc2cc(C(C)(C)C)c(O)c(C(C)(C)C)c2)OC(=O)CCc2cc(C(C)(C)C)c(O)c(C(C)(C)C)c2)OC(=O)CCc2cc(C(C)(C)C)c(O)c(C(C)(C)C)c2)cc(C(C)(C)C)c1O (centres undefined),57
13,CS(=O)(=O)c1ccc(-c2cc3c(cc2C(=O)c2cc4c(cc2-c2ccc(S(C)(=O)=O)cc2)OC(c2cc(F)cc(F)c2)CO4)OCC(c2cc(F)cc(F)c2)O3)cc1 (centres undefined),191 to 193
14,CC(C)CCCC(C)CCC1(CCC(C)CCCC(C)C)c2cc(Br)ccc2-c2ccc(-c3nc4cc5sc(-c6ccc7c(c6)C(CCC(C)CCCC(C)C)(CCC(C)CCCC(C)C)c6cc(Br)ccc6-7)nc5cc4s3)cc21 (centres undefined),163 to 166
15,CC1(C)CC(Nc2nc(N(C3CC(C)(C)NC(C)(C)C3)C3CC(C)(C)NC(C)(C)C3)nc(N(C3CC(C)(C)NC(C)(C)C3)C3CC(C)(C)NC(C)(C)C3)n2)CC(C)(C)N1,318 to 320
16,CSCCC(NC(=O)C(CCC(N)=O)NC(=O)OC(C)(C)C)C(=O)NC(C)C(=O)NC(C(=O)NC(CCCCNC(=O)OCc1ccccc1)C(=O)OCc1ccccc1)C(C)C (centres undefined) (Boc-QMAVK(Cbz)-OBn; configuration not given here),238 to 241
17,CCCCCCCCCCCCCCCCCC[Si](C)(C)O[C@@H]1c2cc(Br)ccc2-c2ccc(Br)cc2[C@H]1O[Si](C)(C)CCCCCCCCCCCCCCCCCC (relative stereo),51.5 to 52.5
18,COc1cc(OC)c(/C=C/C(c2ccc(OC)c(NCCC(=O)O)c2)S(=O)(=O)C(/C=C/c2c(OC)cc(OC)cc2OC)c2ccc(OC)c(NCCC(=O)O)c2)c(OC)c1 (centres undefined),156 to 158
19,CCCCCCCCCCCCCC=CC(OC(=O)c1ccccc1)C(COC1OC(CO)C(O)C(OCCCCC(C(=O)OC(C)(C)C)C(=O)OC(C)(C)C)C1O)NC(=O)CCCCCCCCCCCCCCC (centres undefined),131 to 132

row,Compound,melting point [°C]
1,C=CCOc1nc(NC(C)(C)CC(C)(C)C)nc(N(CCCCCCN(c2nc(NC(C)(C)CC(C)(C)C)nc(OCC=C)n2)C2CC(C)(C)NC(C)(C)C2)C2CC(C)(C)NC(C)(C)C2)n1,210 to 212
2,CCCCCCCCCS(=O)(=O)c1c(S(=O)(=O)CCCCCCCCC)c(S(=O)(=O)CCCCCCCCC)c(S(=O)(=O)CCCCCCCCC)c(S(=O)(=O)CCCCCCCCC)c1S(=O)(=O)CCCCCCCCC,95
3,CC1(C)CC(C(O)CNc2nc(NCc3ccc(CNc4nc(NCC(O)C5CC(C)(C)NC(C)(C)C5)nc(NCC(O)C5CC(C)(C)NC(C)(C)C5)n4)cc3)nc(NCC(O)C3CC(C)(C)NC(C)(C)C3)n2)CC(C)(C)N1 (centres undefined),151 to 156
4,Cc1ccc(S(=O)(=O)N2CCN(S(=O)(=O)c3ccc(C)cc3)CC(Cc3ccc(O)cc3)N(S(=O)(=O)c3ccc(C)cc3)N(S(=O)(=O)c3ccc(C)cc3)CC2)cc1 (centres undefined),192 to 193
5,COc1cc(OC)c(/C=C/C(c2ccc(OC)c(NC(=O)c3ccc([N+](=O)[O-])cc3)c2)S(=O)(=O)C(/C=C/c2c(OC)cc(OC)cc2OC)c2ccc(OC)c(NC(=O)c3ccc([N+](=O)[O-])cc3)c2)c(OC)c1 (centres undefined),206 to 208
6,CC(=O)OC12COC1CC(O)C1(C)C(=O)C(O)C3=C(C)C(OC(=O)C(O)C(NC(=O)OC(C)(C)C)c4ccccc4)CC(O)(C(OC(=O)c4ccccc4)C21)C3(C)C (centres undefined),196 to 203
7,C[C@H](Cc1ccc(OCCCN2CCCCC2)c(OCCCN2CCCCC2)c1)[C@@H](C)Cc1ccc(OCCCN2CCCCC2)c(OCCCN2CCCCC2)c1,84 to 86
8,CCCCCCCCCCCCS(=O)(=O)c1cc2c(cc1S(=O)(=O)CCCCCCCCCCCC)C(=O)c1c(c(O)c3cc(S(=O)(=O)CCCCCCCCCCCC)c(S(=O)(=O)CCCCCCCCCCCC)cc3c1O)C2=O,180 to 183
9,CCCCCCCCCCCCCCCC(=O)OCC(COC(=O)CCCCCCCCCCCCCCC)OC(=O)CCCC(=O)Oc1cc(Cl)ccc1Oc1ccc(Cl)cc1Cl,44 to 46
10,Ic1cc(I)c(OCCOc2c(I)cc(I)cc2I)c(I)c1,288 to 289
11,O=C(O)Cc1cccc(-c2cc(CCCCc3ccc(OC4OC(CO)C(O)C(O)C4O)c(-c4cccc(CC(=O)O)c4)c3)ccc2OC2OC(CO)C(O)C(O)C2O)c1 (centres undefined),195 to 197
12,CO/N=C(\C(=O)N[C@@H]1C(=O)N2C(C(=O)OC(C)(C)C)=C(CI)SC[C@H]12)c1nc(C(c2ccccc2)(c2ccccc2)c2ccccc2)sc1N,150
13,CCCCCCCCCCCCCCCCS(=O)(=O)Nc1ccc2c(c1)C(NS(=O)(=O)CCCCCCCCCCCCCCCC)(c1ccccc1)C=N2 (centres undefined),210 to 212
14,CC(C)C(NS(=O)(=O)N(C)Cc1ccccn1)C(=O)NC(Cc1ccccc1)C(O)C(O)C(Cc1ccccc1)NC(=O)C(NS(=O)(=O)N(C)Cc1ccccn1)C(C)C (centres undefined),85 to 89
15,COc1cc(OC)c(/C=C/C(c2ccc(OC)c(NC(=O)c3cc([N+](=O)[O-])cc([N+](=O)[O-])c3)c2)S(=O)(=O)C(/C=C/c2c(OC)cc(OC)cc2OC)c2ccc(OC)c(NC(=O)c3cc([N+](=O)[O-])cc([N+](=O)[O-])c3)c2)c(OC)c1 (centres undefined),277 to 279
16,CCCCC(CC)COc1cc2c3cc(OCC(CC)CCCC)c(OCC(CC)CCCC)cc3c3c(OC)ccc(OC)c3c2cc1OCC(CC)CCCC (centres undefined),54 to 56
17,CCOc1ccc(C(=CC2(C=C(c3ccc(OCC)cc3)c3ccc(N4CCCC4)cc3)OC(=O)c3c(Cl)c(Cl)c(Cl)c(Cl)c32)c2ccc(N3CCCC3)cc2)cc1 (centres undefined),221 to 223
18,C=CCOC1OC(CO)C(O)C(OC(=O)CC(CCCCCCCCCCC)OC(=O)CCCCCCCCCCCCC)C1NC(=O)OCC(Cl)(Cl)Cl (centres undefined),68 to 70
19,O=C(Cc1ccccc1)Oc1n[nH]c(=O)c2nc3cc(Cl)ccc3c(O)c12,278 to 282

# Continued, values first:
row,melting point [°C],Compound
1,207 to 208,CC(C)(Cc1ccc(S(=O)(=O)CCc2c(CCNS(=O)(=O)Cc3ccc(Cl)c(Cl)c3)n(C(c3ccccc3)c3ccccc3)c3ccc(Cl)cc23)cc1)C(=O)O
2,184 to 186,CCc1nc(OC)c(NC(=O)N2CCN(c3cc(Cl)cc(Cl)c3)CC2)cc1C(=O)NC(C)C(=O)Nc1cc(CO)cc(Nc2c3ccccc3nc3ccccc23)c1 (centres undefined)
3,195 to 197,O=C(O)c1ccnc(F)c1
4,140 to 142,CCCC(=O)c1cnc2c(C(C)O)cccc2c1Nc1ccccc1C (centres undefined)
5,194 to 197,CC(CO)Nc1nc(Nc2ccc(S(C)(=O)=NS(=O)(=O)CC[Si](C)(C)C)cc2)ncc1Br (mixture of isomers)
6,111 to 113,Cc1ccc(Cl)cc1C(N)=NO
7,196 to 197,COc1ccccc1C(=C/C=C/C(=O)O)c1ccccc1OC
8,205 to 207,CCc1nc(OC)c(NC(=O)N2CCN(c3cc(OC)c(OC)c(OC)c3)CC2)cc1C(=O)NC(C)C(=O)Nc1cc(CO)cc(Nc2c3ccccc3nc3ccccc23)c1 (centres undefined)
9,114 to 115,CCCCC(C)OC(=O)c1c(I)c(I)c(C(=O)OC(C)CCCC)c(I)c1I (centres undefined)
10,137 to 140,Cc1ccc2c(c1)CC(=O)N2c1c(F)cc(F)cc1Cl
11,122 to 126,CCCc1nn(C)c(C(=O)O)c1[N+](=O)[O-]
12,105 to 107,Cc1cc(C(F)(F)F)ccc1Cn1nc(OC(C)C)cc1CCCOc1ncccc1CC(=O)O
13,139,CCN1CCN(c2ccc(-c3ccnc(Nc4cc(OC)c(OC)c(OC)c4)n3)cn2)CC1
14,118 to 121,CCCCCCCCCCCCC=CCCC(Cl)CC1CC(=O)N(N(c2ccccc2)c2[nH]n(-c3c(Cl)cc(Cl)cc3Cl)c(=O)c2OC(=O)c2cc([N+](=O)[O-])ccc2N)C1=O (centres undefined)
15,103 to 105,CC1=NN(CCCc2ccccc2)C(=O)C1
16,230,CCC(Cc1c(I)cc(I)c(NC(=O)CN2CCN(CC(=O)O)CCN(CC(=O)O)CCN(CC(=O)O)CC2)c1I)C(=O)O (centres undefined)
17,37 to 38,[C-]#[N+]CCCS(=O)(=O)c1ccc(C)cc1
18,235,O=C(O)CN1CCN(CC(=O)O)CCN(CC(=O)Nc2c(I)cc(I)c(C(=O)O)c2I)CCN(CC(=O)O)CC1
19,170 to 172,CCCNc1nc2cccc(C(=O)OCC)c2n1Cc1ccc(-c2ccccc2-c2nnn[nH]2)cc1
20,185 to 186,O=C(O)C1=Cc2cc(Br)ccc2NC1C(F)(F)F (centres undefined)
21,177 to 178,COc1ccc2c(c1)c(CC(=O)NCC(C)(C)SN=O)c(C)n2C(=O)c1ccc(Cl)cc1
